According to patent US20230310496A1, “COMPOSITIONS AND METHODS FOR PREVENTING AND/OR AM[…]-[…] AUTOIMMUNE DISEASES” (MiZ Company Limited, priority 2022, published 2023):
Like-named read-outs stand apart in the source and are kept apart here.

Tests used:
[1] = test system: myasthenia gravis; assay: Course of myasthenia gravis under drugs before inhalation of hydrogen gas (Example 1); type: in vivo, human; conditions: Tacrolimus 3 mg/day, Mestinon 60 mg × 3/day
Protocol: The course from onset is as follows:
Aug. 26, 2021: upper lip paralysis occurred. […] Since the patient was positive on an ice pack test and a Tensilon test, they were diagnosed as myasthenia gravis. No abnormality was found in a CT test. As a result of a blood test, the patient was false positive to an anti-acetylcholine antibody and prescribed an immunosuppressant (Tacrolimus 3 mg/day). […] The patient could not read letters on a newspaper, raise a frying pan or write letters, and their chewing power reduced.
Sep. 9, 2021: the patient consulted the doctor because of worsening of symptoms and prescribed an anticholinesterase agent (Mestinon 60 mg × 3/day). […] Every day after 3 p.m. or later, the patient felt that their arms are unbearably heavy. Since the arms cannot be removed, the patient spent time with the arms kept on a table.
Sep. 25, 2021: since symptoms were not improved and merely got worse, the patient changed their primary doctor to a neuroimmunology specialist doctor and hospitalization was considered.
Sep. 29, 2021: an immunosuppressant (1 mg) was additionally prescribed by the neuroimmunology specialist doctor; that is, immunosuppressants (Tacrolimus 3 mg/day, Prograf 1 mg/day) were prescribed. The patient avoided hospitalization but was followed up as an outpatient. […] Based on the result, the patient was definitively diagnosed as anti-MuSK antibody positive myasthenia gravis. […]

[2] = human, in vivo
[3] = test system: anti-MuSK antibody positive myasthenia gravis; conditions: for relapse after use of the immunosuppressants was stopped: only hydrogen gas inhalation continued since Mar. 30, 2022, supplemental hydrogen water
Protocol: Patient: person at the time of onset. The course from onset is as follows:
Jan. […] (Kamakura city, Kanagawa prefecture, Japan).
Aug. 24, 2022: medical examination was carried out at the Department of Neurology in the Juntendo University Hospital.

[4] = test system: Hashimoto's disease; conditions: MHG-2000α, hydrogen about 5% to 7%

Row | Compound | symptoms of myasthenia gravis under the drug [1] | side effects of hydrogen itself [2] | languor of the arm ([3]; Day 5 after initiation of inhalation, Jobs-α, hydrogen about 4% to 5%, Jan. 28, 2022) | constipation, a side effect of the immunosuppressants ([3]; Feb. 1, 2022, inhalation started Jan. 23, 2022) | blemishes on their face ([3]; Feb. 16, 2022) | symptoms of myasthenia gravis ([3]; Mar. 20, 2022) | body feeling when inhaling hydrogen gas ([3]; Mar. 22, 2022) | state of myasthenia gravis as told by the doctor ([3]; Oct. 19, 2022) | face turning red after drinking alcohol (side effect of the drugs) ([3]; after inhalation of hydrogen, Feb. 1, 2022) | number of red blood cells ([3]; blood test Mar. 9, 2022, under hydrogen inhalation, normal 3.8 to 5.04) | hematocrit ([3]; blood test Mar. 9, 2022, under hydrogen inhalation, normal 35.6 to 45.4) [%] | anti-MuSK antibody ([3]; medical examination Aug. 24, 2022) | relapse after use of the immunosuppressants was stopped [3] | relapse after use of the immunosuppressants was stopped ([3]; listed as hydrogen) | fatigue [4] | visual field (dark visual field) [4]
1 | C=CC[C@@H]1/C=C(\C)C[C@H](C)C[C@H](OC)[C@H]2O[C@@](O)(C(=O)C(=O)N3CCCC[C@H]3C(=O)O[C@H](/C(C)=C/[C@@H]3CC[C@@H](O)[C@H](OC)C3)[C@H](C)[C@@H](O)CC1=O)[C@H](C)C[C@@H]2OC [Tacrolimus] | the symptoms progressed |  |  |  |  |  |  |  |  |  |  |  |  |  |  | 
2 | [HH] [hydrogen gas, hydrogen] |  | not found | completely gone | overcome | became light | no longer observed | the body gets lighter | not in remission but in healed state | their face never turned red | 4.22 10^12/L | 40.7 | negative | no relapse occurred | no relapse has taken place | felt less fatigued | recovered from darkness and became bright
3 | CN(C)C(=O)Oc1ccc[n+](C)c1 [Mestinon] | their symptoms further got worse |  |  |  |  |  |  |  |  |  |  |  |  |  |  | 
